In patent publication EP0127529A2, “Aminocyclic N-oxide derivatives, process for their preparation and their therapeutical use” (DELALANDE S.A., priority 1983, dated 1984):

Assays:
[1] = tested on: souris; experiment: Acute toxicity in mice, intraperitoneal route; type: in vivo; conditions: i.p.
Excerpt: La toxicité aiguë des composés selon l'invention a également été étudiée chez la souris par voie intrapéritonéale. Le tableau II ci-après donne à titre d'exemple non limitatif les résultats obtenus avec certains des composés selon l'invention.

[2] = tested on: redressements à l'apomorphine; experiment: Antagonism of apomorphine-induced rearing (climbing) in mice; type: in vivo; conditions: souris, i.p.
Excerpt: Ces propriétés psychotropes ont été mises en évidence chez la souris, notamment par le test de l'antagonisme aux redressements à l'apomorphine réalisé d'après le protocole décrit par G. GOURET et Coll. dans J. Pharmacol. (Paris) (^1973), ^4, 341.

Compound	Toxicité (souris) DL 50 [1]	Antagonisme aux redressements à l'apomorphine DE 50 [2]
COc1cccc(C(=O)NC2CC3CCC(C2)[N+]3([O-])Cc2ccccc2)c1OC (stereo not shown) [compound 1, N-oxyde axial du (diméthoxy-2,3) benzoylamino-3 N-benzyl aza-8 bicyclo [3.2,1] octane]	> 400 mg/kg/i.p.	2,2 mg/kg/i.p.
COc1cccc(C(=O)NC2CC3CCC(C2)[N+]3([O-])Cc2ccccc2)c1OC (stereo not shown) [compound 2, N-oxyde équatorial du (diméthoxy-2,3) benzoylamino-3 N-benzyl aza-8 bicyclo[3.2.1] octane]	400 mg/kg/i.p.	0,27 mg/kg/i.p.
